Article PMC11763264, “Antibacterial and Antifungal Activities of Linear and Cyclic Peptides Containing Arginine, Tryptophan, and Diphenylalanine” (Antibiotics, 2025)
≈ marks a conversion by molar mass, not a printed value. Non-standard residues stand in square brackets, D forms with d. Residues, ends and D or L forms follow the SMILES beside them. Dip = N[C@H](C(=O)O)C(c1ccccc1)c1ccccc1

Key:
MRSA (ATCC BAA-1556) = assay: microbe, parasite or virus in culture; assay type: cell-based, Methicillin-Resistant Staphylococcus aureus; conditions: ATCC BAA-1556, 24 h
Protocol: (§1) The antibacterial activity of all ten synthesized linear and cyclic peptides was evaluated against MRSA (ATCC BAA-1556), S. aureus (ATCC 29213), E. faecium (ATCC 700221), S. pneumoniae (ATCC 51938), E. faecalis (ATCC 29212), B. subtilis (ATCC-6633), K. pneumoniae (ATCC BAA-1705), P. aeruginosa (ATCC 27883), and E. coli (ATCC 25922). Meropenem and daptomycin were used as positive controls for this study. Certain peptides are marked as “NT” (not tested) against specific bacterial strains based on initial screening data. […] The MIC was determined by micro-broth dilution protocol, where the minimal concentrations were determined to be in wells with no visible bacterial growth.
(§2) All bacterial experiments were carried out in a laminar flow hood (Labconco, Kansas City, MO, USA). The bacterial strains were cultured following the guidelines set by the Clinical Laboratory Standards Institute (CLSI). Antibacterial assays were performed using a standard microtiter dilution method as described in previous studies. The minimum inhibitory concentration (MIC) refers to the lowest peptide concentration that inhibits bacterial growth in wells with no visible bacterial growth. MIC was determined by micro-broth dilution. Bacteria were cultured overnight in 6 mL of Luria Broth (LB). A stock solution of the peptide was prepared in water and DMSO, and a test compound solution with a concentration of 256 µg/mL was made in LB. Meropenem, with a solubility of 8 mg/mL, was prepared as a stock solution at 4 mg/500 µL. An aliquot of the overnight bacteria culture was diluted in normal saline (NS, 1 mL) until achieving a 0.5 McFarland turbidity (1.5 × 10^8 bacterial cell CFU/mL). A 0.5 McFarland compared solution (60 µL) was added to Mueller Hinton Broth (MH) 8940 µL to generate a 1/150 dilution. A 200 µL test compound solution was added to the first well of a 96-well plate, and the remaining wells (2–12) were filled with 100 µL of MH media using a multi-channel pipette from a sterile reservoir. A concentration of […] of the tested peptides was prepared from a stock solution of the samples for testing in Muller−Hinton broth MH media. Peptides stock solution was dissolved in 5% DMSO in water, and the final concentration of DMSO in the first well of assay plate was 2.5% DMSO/H2O and diluted across the assay plate.
(§3) A 100 µL sample from well 1 was pipetted into well 2, and the solution was mixed thoroughly by pipetting up and down. Next, 100 µL was transferred from well 2 to well 3, followed by thorough mixing. This 2-fold serial dilution process continued through well 11, with no additions made to well 12. The final 100 µL from well 11 was discarded. After completing the serial dilution, each well (1–12) contained 100 µL of solution. The bacterial culture in MH media was vortexed and transferred to a sterile reservoir, from which 100 µL was added to each well using a 12-channel pipette. (Note: The dilutions were further diluted upon adding the bacterial solution; for example, the concentration in well 1 started at […] after the addition of the bacterial culture.) The plates were incubated overnight at 37 °C for 24 h. All experiments were performed in triplicate and repeated twice, with controls consisting of bacteria in MH media and positive controls of daptomycin or meropenem.

[1] = tested on: S. pneumoniae (ATCC 51938); assay: microbe, parasite or virus in culture; assay type: cell-based, Streptococcus pneumoniae; conditions: ATCC 51938, 24 h
Protocol: as §1, §2, §3

E. faecalis (ATCC 29212) = assay: microbe, parasite or virus in culture; assay type: cell-based, Enterococcus faecalis; conditions: ATCC 29212, 24 h
Protocol: as §1, §2, §3

[2] = tested on: K. pneumoniae (ATCC BAA-1705); assay: microbe, parasite or virus in culture; assay type: cell-based, Klebsiella pneumoniae; conditions: ATCC BAA-1705, 24 h
Protocol: as §1, §2, §3

A. fumigatus (Af-293) = assay: microbe, parasite or virus in culture; assay type: cell-based, Aspergillus fumigatus; conditions: RPMI 1640 with 2% D-glucose, HEPES, 10^6 cells/mL, 24 and 48 h at 35 °C, no visible growth; triplicates, repeated twice
Protocol: The antifungal activity of all ten synthesized linear and cyclic peptides was evaluated against C. albicans (ATCC 60193), C. parapsilosis (ATCC 22019), and A. fumigatus (AF-293). Fluconazole and amphotericin B were used as positive controls for this study. The MIC was determined at concentrations in wells with no visible fungal growth.
A. fumigatus (Af-293) was cultured on Sabouraud dextrose agar (SDA) (Lot #3431660, Oxoid) for 48–72 h at 35 °C to obtain fresh and mature colonies which reached the proper sporulation then used to prepare the inoculum. The colonies were covered with Phosphate-Buffered Saline (PBS) containing 0.025% Tween-20, scraped from the plate, and carefully collected into a sterile tube. The suspension was centrifuged at 3000 RPM for 5 min after the separation between conidia and hyphae. The supernatant was discarded, and the pellet was resuspended in 5 mL of PBS.
Peptide concentrations of 50, 25, 12.5, 6.25, and 3.1 μg/mL were tested in triplicate. Each well of a 96-well plate was inoculated with the prepared inoculum suspension, which was diluted with RPMI 1640 medium containing L-glutamine, supplemented with 2% D-glucose, and the pH adjusted using HEPES buffer. The plates were incubated for 50 min at 35 °C to achieve a final cell concentration of 10^6 cells/mL. The control wells contained the same inoculum without any compound. The plates were then incubated for 24 and 48 h at 35 °C. Fungal growth was visualized, and the minimum inhibitory concentration (MIC) was determined as the lowest peptide concentration, where no growth was observed.

[3] = tested on: Gram-positive and Gram-negative bacteria strains; assay type: cell-based; conditions: span over all bacterial strains tested; micro-broth dilution
Protocol: as §1
(§4) All bacterial experiments were carried out in a laminar flow hood (Labconco, Kansas City, MO, USA). The bacterial strains were cultured following the guidelines set by the Clinical Laboratory Standards Institute (CLSI). Antibacterial assays were performed using a standard microtiter dilution method as described in previous studies. The minimum inhibitory concentration (MIC) refers to the lowest peptide concentration that inhibits bacterial growth in wells with no visible bacterial growth. MIC was determined by micro-broth dilution. Bacteria were cultured overnight in 6 mL of Luria Broth (LB). […]

[4] = tested on: Gram-positive bacteria strains: MRSA, S. aureus, E. faecium, E. faecalis, S. pneumoniae, and B. subtilis; assay type: cell-based; conditions: span over MRSA, micro-broth dilution
Protocol: as §1, §4

[5] = cited from earlier work
Excerpt: We hypothesized that these peptides can be used as a broad-spectrum antibiotic and antifungal agents by interacting with bacterial and fungal membranes. The head-to-tail cyclization and incorporation of unnatural amino acids could provide improved stability against degradation in the biological environment. […] For example, we have previously shown the plasma stability of [DipR]5. Approximately 15% degradation of [DipR]5 was observed within the first hour, but the rate of de ...

MDA-MB-468 cells = conditions: cited from earlier work
Excerpt: (§5) We have previously reported in vitro cytotoxicity of the synthesized peptides in a range of mammalian cell lines, including human ovarian adenocarcinoma cells (SK-OV-3), human peripheral blood lymphoblast cells (CCRF-CEM), healthy human embryonic kidney cells (HEK-293), human mammary adenocarcinoma cells (MDA-MB-468), normal pig kidney epithelial cells (LLC-PK1), and human uterine sarcoma fibroblast cells (MES-SA).

MES-SA cells = conditions: cited from earlier work
Excerpt: as §5

## N=C(N)NCCC[C@@H]1NC(=O)[C@H](C(c2ccccc2)c2ccccc2)NC(=O)[C@H](CCCNC(=N)N)NC(=O)[C@H](C(c2ccccc2)c2ccccc2)NC(=O)[C@H](CCCNC(=N)N)NC(=O)[C@H](C(c2ccccc2)c2ccccc2)NC(=O)[C@H](CCCNC(=N)N)NC(=O)[C@H](C(c2ccccc2)c2ccccc2)NC(=O)[C@H](CCCNC(=N)N)NC(=O)[C@H](C(c2ccccc2)c2ccccc2)NC1=O [[DipR]5] (cyclo([Dip]R[Dip]R[Dip]R[Dip]R[Dip]R))
MRSA (ATCC BAA-1556)
  MIC: 3.1 µM (≈ 5.88 µg/mL)
[1]
  MIC: 0.39 µM (≈ 0.74 µg/mL)
E. faecalis (ATCC 29212)
  MIC: 0.78 µM (≈ 1.48 µg/mL)
[2]
  MIC: 25 µM (≈ 47.4 µg/mL)
A. fumigatus (Af-293)
  MIC: 1.6 µM (≈ 3.04 µg/mL)
[3]
  MIC values against Gram-positive and Gram-negative bacteria strains: 0.39 to 25 µM
[4]
  MIC values against Gram-positive bacteria strains: 0.39 to 6.3 µM
[5]
  degradation in plasma: Approximately 15%
MDA-MB-468 cells
  cytotoxicity against MDA-MB-468 cells: reduced cytotoxicity
MES-SA cells
  cytotoxicity against MES-SA cells: moderate effects
